The term melting point denotes the temperature of the solid-liquid transition.

`CC(C)N(CCO)c1nc(Nc2cccc(NS(C)(=O)=O)c2)nc2[nH]ccc12`: the melting point fell in the range of 129 to 132 °C. With `Nc1nc(N)c(N)c(OCC2CCCCC2)n1`, the melting point was 154 °C.

As to `O=C1NN(c2nc3ccc(Cl)cc3s2)C(c2ccccc2)C1c1ccccc1` (stereo not drawn), the melting point was in the range of 170 to 172 °C. On to `NCCOc1cc(Cl)cc([N+](=O)[O-])c1N`, for which the melting point was 156 to 157 °C. As to `CCCCCCOc1ccc(C=C(C#N)c2cccnc2)cc1`, the melting point was 67 to 68 °C. For `CNS(=O)(=O)c1ccc(F)cc1`, the melting point was in the range of 67 to 70 °C.

In turn, `COc1ccc(C2=NN(C(=O)c3cccnc3)CC2)cc1` gave a melting point of 132 to 134 °C. Regarding `CCCc1n[nH]c(CCC)n1`, the melting point was 69 to 70 °C. `COC(=O)Oc1c(OC)cc(OC)c2ccccc12` showed a melting point of 128 to 129 °C.

Regarding `Clc1ccc(-c2c(Cc3nc4ccccc4s3)cnn2-c2ccccc2)cc1`, the melting point was in the range of 135 to 137 °C.

As for `Cc1ccc(C2C(=O)Oc3c2cc(C(C)(C)C)cc3C(C)(C)C)cc1C` (stereo not drawn), the melting point lay within 130 to 132 °C. Take `Sc1nc2cc(N3CCNCC3)ccc2[nH]1`: the melting point lay in the range of 260 to 261 °C. In turn, `Cc1c(Cc2cc(Cl)cc(Cl)c2)c(C(=O)O)nn1CCO` came in with a melting point of 241 to 242 °C. As for `OC(CNC1=NCCN1)c1ccc(F)cc1` (stereo not drawn), the melting point came to 153 °C. For `COc1cc2c(cc1O)CCN(Cc1cccc(O)c1)C2`, the melting point is 177 to 178 °C. As to `O=C(O)CC(O)c1ccc(-c2ccc(Cl)c(Cl)c2)o1` (stereo not drawn), the melting point lay within 95 to 96 °C. As to `CCCCS(=O)Cc1ccc(CCl)cc1` (stereo not drawn), the melting point fell in the range of 112 to 113 °C. On to `C=C(C)C(=O)OCCCOc1cc(-n2nc3ccc(OC)cc3n2)c(O)c(C(C)(C)C)c1`, for which the melting point was 114 to 116 °C.

`O=C1C(Cc2ccccc2)C(c2ccccc2)Nc2ccccc2N1Cc1ccccc1` (stereo not drawn) registered a melting point of 149 to 150 °C. As to `CC1(C(=O)Nc2ccc(N3CCOC3=O)c(C(F)(F)F)c2)CC1`, the melting point is 146 to 147 °C. The compound `Cc1cccc(-n2c(CCl)nc3ccccc3c2=O)c1` had a melting point of 183 to 185 °C. With `CCOC(=O)c1ccc(C(CCc2cc(Cl)ccc2N2CCCCC2)C(N)=O)cc1` (stereo not drawn), the melting point is 95 to 97 °C. As for `O=C1C=CC(O)(c2cc3ccccc3s2)C=C1`, the melting point lay in the range of 185 to 188 °C.

The compound `CSCS[C@H](C)[C@](O)(Cn1cncn1)c1ccc(F)cc1F` gave a melting point of 108 to 109 °C. Compound `COc1ccc(Cn2cnc3c(-c4ccco4)nc(C#N)nc32)cc1` came in with a melting point of 205 to 207 °C. Regarding `Cc1cc(-c2ccc(C(F)(F)F)cc2)nc2c(C(=O)Nc3cccc(S(C)(=O)=O)c3)cnn12`, the melting point was in the range of 198 to 200 °C. Regarding `CC(=O)C=Cc1c(C)c(C)c(C)c2ccoc12`, the melting point turned out to be 99 °C. The compound `O=c1c2c(Cc3cccc(C(F)(F)F)c3)n[nH]c2c2cccnc2n1-c1cccc(OC(F)(F)F)c1` returned a melting point of 206 to 209 °C.

As to `O=C(O)c1cc2cc(Cl)ccc2nc1N[C@@H](Cc1ccc(OCc2ccccc2)cc1)C(=O)O`, the melting point lay within 169 to 171 °C. Regarding `CCS(=O)Cc1cccc(-c2nc(=O)c3ccccc3s2)n1` (stereo not drawn), the melting point is 188 to 190 °C. For `CC1CCCC1n1ncc(-c2ccc(S(C)(=O)=O)cc2)c(-c2ccc(F)cc2)c1=O` (stereo not drawn), the melting point was in the range of 180 to 181 °C. In the case of `Clc1ccc(OC2CN(C(c3ccccc3)c3ccccc3)C2)cc1`, the melting point lay within 113 to 114 °C.

`COc1ccc(C2=NN(C3CCN(S(=O)(=O)c4ccc(C)cc4)CC3)C(=O)CC2)cc1OC` had a melting point of 179 to 184 °C. In the case of `CCOP(=O)(OCC)C(CCC(C(N)=O)P(=O)(OCC)OCC)C(N)=O` (stereo not drawn), the melting point lay in the range of 232 to 234 °C. Compound `CCOC(=O)c1c(C(F)(F)F)nc(C(F)F)c(C(=O)OC)c1N(C)C` displayed a melting point of 80 to 81 °C. Compound `O=C1c2cc([N+](=O)[O-])cc([N+](=O)[O-])c2OC12CC2` showed a melting point of 158 to 161 °C. For the compound `CCOC(=O)c1ccc2nc(C)n(Cc3ccccc3Cl)c2c1`, the melting point is 126 to 127 °C.

On to `CCN1CC(NC(=O)c2ccc(N)cc2)CN1CC`, for which the melting point was 119 to 121 °C. Turning to `CCOC(=O)c1cc(=O)cc(-c2ccc(O)cc2)o1`, the melting point was in the range of 213 to 215 °C. In the case of `Cc1ccc(S(=O)(=O)OC2=CC3COC(O3)C2=O)cc1` (stereo not drawn), the melting point is 81 to 86 °C. Regarding `CCCCCCCCC#CCC#CCC#CCO`, the melting point was 48 °C. Consider `C#CC1(O)CCC2(C)C(CCC3C2CCC2(C)C(C(=O)CSCCO)CCC32)C1` (stereo not drawn), for which the melting point was in the range of 122 to 126 °C. Turning to `CCOC(=O)c1cn(-c2ccccn2)c2oc(CN3CCOCC3)cc2c1=O`, the melting point is 192 to 195 °C.

For the compound `O=C1C2=NCCCN2c2cc(Cl)c([N+](=O)[O-])cc21`, the melting point was in the range of 152 to 165 °C. Then `CN(C(=O)c1cn2cc(-c3ccc(Cl)cc3)ccc2n1)C(Cc1ccc(OCc2ccccc2)cc1)C(=O)O` (stereo not drawn), with 216 °C; and `O=C1N(Cc2cc(=O)[nH]c(=O)[nH]2)c2ccccc2C12COc1cc3c(cc12)OCO3` (stereo not drawn), with > 300 °C; and `Cc1ccc(S(=O)(=O)Oc2ccc(S(=O)(=O)c3c(C(C)C)cn4ccccc34)cc2)cc1`, with 180 to 183 °C. Then `CCN(CC)C(=O)Cc1c(-c2ccc(OC)cc2)nc2c(C)cc(C)nn12`, with 129 to 131 °C.

The compound `COC(=O)C(=O)c1ccc(S(=O)CCOc2ccc3ccccc3c2)cc1` (stereo not drawn) yielded a melting point of 129 to 130 °C. `Cc1ccc([S@@](C)=O)cc1` showed a melting point of 75 to 76 °C. The same measure for `C#CCc1c(C)nc2c(NCc3ccccc3Cl)cccn12`: 115 to 116 °C; for `CCCCCCCCCCCCCCCCCC1CC(O)C(CC)C(=O)O1` (racemic): 101 to 102 °C. The compound `OC1CSC(Oc2cccc(-c3ccccn3)c2)C(O)C1O` (stereo not drawn) displayed a melting point of 138 to 139 °C. `COc1c(C)cc(C(=O)c2ccc(Cl)cc2)c(OC)c1OC` displayed a melting point of 99.5 to 100 °C. `Cc1ccc(-c2nc3cccnc3n2CC(N)=O)s1`: the melting point is > 250 °C. Regarding `O=C(O)CCCCCCCCCCCCCCCCCCCCC(=O)ON1C(=O)CCC1=O`, the melting point lay within 122 to 124 °C. Consider `CCOC(=O)c1cc(-c2ccc(C#N)cc2)[nH]c1N`, for which the melting point fell in the range of 228 to 229 °C.

`CCCc1nc(C)n2cnnc2c1Cc1ccc(-c2ccccc2-c2nnn[nH]2)cc1` showed a melting point of 182 to 184 °C. In turn, `C=CCOc1ccc(C(=O)CC(C)(C#N)c2ccc(OC)cc2OC)cc1` (stereo not drawn) came in with a melting point of 77.8 to 78.5 °C. Turning to `C[Si](C)(C)CCOCn1cc(C#N)c(=O)c2cc([N+](=O)[O-])c(Cl)cc21`, the melting point lay in the range of 200 to 202 °C. Then `Cc1cc(C(O)CN2CCC(O)(c3ccc4c(c3)COCC4)CC2)ccc1O` (stereo not drawn), with 178 °C. In the case of `c1cc2c3c(cccc3c1)C(NCCCCCCCn1ccnc1)=N2`, the melting point fell in the range of 48 to 50 °C. For `CC(C)C[C@H](NC(=O)C(CS)C(F)(F)F)C(=O)O` (stereo partly drawn), the melting point was in the range of 132 to 134 °C. Then `COc1ccc(C(=CC#N)c2cc(OC)c(OC)c(OC)c2)cc1N`, with 97 to 99 °C; and `N#Cc1c(Cl)[nH]c2ccccc12`, with 177 to 180 °C; and `COc1c(Cl)ccc(-c2cc(N)c(Cl)c(C(=O)NOCC(C)C)n2)c1F`, with 145 to 148 °C. The compound `CCC(C)COC(=O)Cn1cccc1-c1nc(-c2ccc(OC)cc2)c(-c2ccc(OC)cc2)s1` (stereo not drawn) returned a melting point of 81.5 to 84.5 °C.

As for `CC(Cc1ccc(Oc2cc(N3CCN(Cc4ccccc4)CC3)nc(Oc3ccccc3)n2)cc1)(Oc1ccccc1)C(=O)O` (stereo not drawn), the melting point lay in the range of 126 to 128 °C. For the compound `CC(C)(C)c1ccc(Cn2ccc3ccc(-c4ccc(C(F)(F)F)cc4)cc32)cc1`, the melting point fell in the range of 134 to 135 °C. Turning to `CC1(C)CC(=O)C2=C(C1)NC1=C(C(=O)CC(C)(C)C1)C2c1ccc(OC(F)(F)F)cc1`, the melting point amounted to 234 °C. The same measure for `CCN1CCCC1CNC(=O)Cc1ccc(-c2ccc3c(=O)c(-c4ncc[nH]4)c(N)n(CC)c3n2)cc1F` (stereo not drawn): 100 °C; for `Cc1ccc(Cl)c(C)c1Nn1cc(C#N)c(=O)[nH]c1=O`: > 320 °C.

In the case of `O=C(NCCc1c2n(c3ccc(O)nc13)CCCC2)c1ccco1`, the melting point worked out at 270 °C. The same measure for `N#Cc1ccc(NC(=O)[C@H](CC(=O)O)NCc2ccccc2)cc1`: 178 °C; for `Oc1cc2onc(C3CCCCC3)c2cc1O`: 177 °C; for `CCN(CC)C(=O)c1ccc2ccccc2c1-c1ccccc1`: 121 to 122 °C.

Compound `CCCOc1ccc(CNc2cc(C(=O)Nc3ccccc3)ccc2OC)cc1` registered a melting point of 154 to 156 °C. `Cc1cc(-c2cnn3c(C(F)(F)F)cc(-c4ccc(C(F)(F)F)c(OCC(F)(F)F)c4)nc23)cc(C)n1` had a melting point of 245 °C. Turning to `CCOC(=O)C1=CC(=NO)[C@@H](NC(C)=O)[C@@H]2OC(C)(C)O[C@H]12`, the melting point was 106 to 116 °C. `CCOc1ccc2c(c1)C(C)(c1cc(NC(=O)c3cccnc3)ccc1Cl)C(=O)N2S(=O)(=O)c1ccc(C(=O)NC(C)(C)C)cc1OC` (stereo not drawn) had a melting point of 192 °C.

Compound `CN(C)CCNC(=O)c1ccc2c(c1)CN(C(=O)CCCCCN1CCN(c3cccc(C(F)(F)F)c3)CC1)C2` showed a melting point of 120 °C. Take `CCCNc1nc(N)nc(-c2ccccc2)c1-c1ccc(=O)n(C(C)C)n1`: the melting point lay within 209 to 212 °C. Then `CC(C)(C)OC(=O)N1CCN(C(=O)c2cc(C(F)(F)F)cc(C(F)(F)F)c2)[C@H](Cc2c[nH]c3ccccc23)C1`, with 155 to 156 °C; and `CC1CSC2=CC=NC3=CC=CC(c4ccccc4)C321` (stereo not drawn), with 164 °C; and `OC1Cn2ccnc2C(=C2CCN(CCc3ccc(OCc4ccc5ccccc5n4)cc3)CC2)c2ccsc21` (stereo not drawn), with 242 °C. Take `CCCCOc1c(C(=O)O)n(CC(C)(C)C)c(=O)c2cc(F)ccc12`: the melting point is 184 to 185 °C. Compound `CSc1nccc(C(C)=NO)n1` displayed a melting point of 150 to 152 °C.

`O=C(NCc1ccc(Cl)cc1)c1cn(Cc2ccccc2)c2sc(CN3CCOCC3)cc2c1=O` came in with a melting point of 225 to 226 °C.

For the origin of these results see a melting point compilation (Tetko et al.; mined from patent text by program, amines drawn as free bases though some values may be those of a salt).
